For the test, the system named is NFkB. The test can be described thus: In vitro inflammatory assay: TNFα-induced NFkB luciferase reporter in Jurkat cells. The format is cell-based. The note with it: for IC50 / inhibition at 120 µM: Homo sapiens; for IC50: read-out: IC50 (μM), in vitro inflammatory data (inhibition of NFkB activity). The method, then:
I. Protocol for In Vitro Inflammatory Assay:
• 1. Jurkat cell line expressing a luciferase reporter under the control of an NFkB promoter sequence was created. Clones were isolated using G418 and then characterized for enhanced luciferase activity following stimulation of cells with either TNFα or PMA+Ionomycin. • 2. Assay protocol was as follows: • Day 1: Cells were split to a density of 1.1×10^5 cells/mL. • Day 2: • Cells were adjusted to a density of 2×10^5/mL. • 100 μl of cells were added to each well of a 96-well plate. • Test compounds were diluted to 200 μg/mL in media (1% DMSO). • 100 μl of diluted test compound was added to cells. Final test compound concentration from […] was added and the final DMSO concentration=0.5%. Compounds were tested in duplicate. • Plates were incubated 1 hour at 37° C. • 10 μl of a 2.1 nM TNFα solution was added to each well. Plates were returned to 37° C. for another 4 hours. • TNFα-induced luciferase activity was determined using commercially available kits and a microplate luminometer. • Inhibition of NFkB activity was determined by comparing luciferase activity from test compound-treated cells to luciferase activity in 0.5% DMSO-treated (control) cells.

[1] abbreviates: Jurkat NFkB-luciferase reporter cells, TNFα stimulation, 1 hour preincubation + 4 hours.
The mark [2] stands for this setting: Jurkat NFkB-luciferase reporter cells, TNFα stimulation.

Each structure is given as a SMILES string.

In the case of `C=CCOC1C(C)OC(O[C@H]2[C@@H](CC=O)C[C@@H](C)C(=O)/C=C/C=C/C[C@@H](C)OC(=O)/C=C/[C@@H]2OC)C(O)C1N(C)C` (stereo partly shown) [Entry 8], the half-inhibitory concentration (IC50) under setting [1] was found to be 41 µM. Take `CC[C@H]1OC(=O)[C@H](C)[C@@H](C)[C@H](C)[C@H](OC2O[C@H](C)C[C@H](N(C)C)[C@@H]2OC(=O)c2ccccc2)[C@](C)(O)C[C@H](C)/C(=N\OCOCCN2CCN(c3ccccc3)CC2)[C@@H](C)[C@H](O)[C@@]1(C)O` (stereo partly shown) [Entry 10]: under setting [1], the IC50 is 30 µM. Same read-out and setting: for `CC[C@@H]1OC(=O)C[C@H](O)[C@@H](C)[C@H](OC2O[C@H](C)[C@H](OC(C)=O)[C@H](N(C)C)[C@@H]2OC(C)=O)[C@H](CCO)C[C@H](C)C(=O)/C=C/C(C)=C/[C@@H]1CO[Si](C)(C)C(C)(C)C` (stereo partly shown) [Entry 11] the value was 22 µM; for `CC[C@H]1OC(=O)C[C@@H](O)[C@H](C)[C@@H](OC2O[C@H](C)[C@@H](OC(=O)c3ccccc3)[C@H](C(C)C)[C@H]2OC(=O)c2ccccc2)[C@@H](CC=O)C[C@@H](C)C(=O)/C=C/C(C)=C/[C@@H]1CO` (stereo partly shown) [Entry 12], 17 µM. For `CC[C@H]1OC(=O)[C@H](C)[C@@H](O[C@H]2C[C@@](C)(OC)[C@@H](O)[C@H](C)O2)[C@H](C)[C@@H](O[C@@H]2O[C@H](C)C[C@H](N(C)C)[C@H]2O)[C@](C)(O)C[C@@H](C)C(=O)[C@H](C)[C@@H](O)[C@]1(C)O` [Erythromycin], under setting [1], the “IC50 (μM), in vitro inflammatory data (inhibition of NFkB activity)” value was “Inactive”. As to `CO[C@@H]1[C@@H](O[C@@H]2O[C@H](C)[C@@H](O[C@H]3C[C@@](C)(O)[C@@H](OC(=O)CC(C)C)[C@H](C)O3)[C@H](N(C)C)[C@H]2O)[C@@H](CC=O)C[C@@H](C)[C@@H](O)/C=C/C=C/C[C@@H](C)OC(=O)C[C@H]1OC(C)=O` [Josamycin], the IC50 under setting [1] is over 120 µM. Besides, under setting [2], the inhibition at 120 µM is about 20%. For `CC[C@H]1OC(=O)C[C@@H](O)[C@H](C)[C@@H](O[C@@H]2O[C@H](C)[C@@H](O[C@H]3C[C@@](C)(O)[C@@H](O)[C@H](C)O3)[C@H](N(C)C)[C@H]2O)[C@@H](CC=O)C[C@@H](C)C(=O)/C=C/C(C)=C/[C@@H]1CO[C@@H]1O[C@H](C)[C@@H](O)[C@@H](OC)[C@H]1OC` [Tylosin], the IC50 under setting [1] was over 120 µM. Further, the inhibition at 120 µM under setting [2] was about 20%.

In the case of `CC[C@H]1OC(=O)C[C@@H](O)[C@H](C)[C@@H](O[C@@H]2O[C@H](C)[C@@H](OC(=O)c3ccccc3)[C@H](N(C)C)[C@H]2OC(=O)c2ccccc2)[C@@H](CC=O)C[C@@H](C)C(=O)/C=C/C(C)=C/[C@@H]1CO` [compound (3)], the “activity in vitro inflammatory assay compared with Erythromycin, Clarithromycin, Josamycin and Tylosin” value (comparison in words) is listed as “improved activity”.

These data come from patent US20090131343A1, “USE OF BRIDGED MACROLIDES OR TYLOSIN DERIVATIVES IN TREATING INFLAMMATORY BOWEL DISEASES” (priority 2007, published 2009).
